Patent US10422787B2, “System and method for single molecule detection” (ARIZONA BOARD OF REGENTS on behalf of ARIZONA STATE …, priority 2015, dated 2019)

Experiments:
cyclic RGD peptide [1] = assay: STM break-junction measurement, Pd probe and substrate functionalized with cyclic RGD peptide; assay type: binding; conditions: for event frequency, of all retractions: 10 nM protein, Vt=0.2V
Experimental: A Pd wire probe, etched to a sharp point and insulated to within a few hundred nm of its apex was used in an Agilent PicoSPM together with a Pd-coated substrate as described elsewhere. […] Probes and substrates were functionalized with cyclic RGD peptide (inset FIG. 14B) as described in Methods. Measurements were carried out in 1 mM phosphate buffer (pH=7.4) with the potential of the substrate controlled at a voltage Vr with respect to an Ag/AgCl reference. […] Integrin itself is electrochemically-inert, but the Pd surface has a rich electrochemistry. Cyclic voltammetry of a Pd surface functionalized with cyclic RGD peptide is shown in FIG. 14B, where a prominent cathodic peak (“HA”) is associated with hydrogen adsorption. […] In order to avoid both this cathodic peak and the onset of Pd oxidation at positive potentials, both electrodes were kept at potentials between 0 and 0.5V vs Ag/AgCl. The STM gap was set to an initial current of 4 pA ([…] conductance at Vt=0.2V, corresponding to a distance, Z0, of about 2 nm) and the probe was then slowly (0.17 nm/s) retracted. The tunnel current decayed rapidly (˜0.2 nm decay length—inset in FIG. 14E) in buffer alone. […] Many current points for αvβ3, exceed 0.1 nA (i.e., conductances >0.5 nS) at distances Z0+ΔZ>3 nm (FIG. 15A). Clearly these currents cannot arise from a tunneling process with β˜0.87 Å^−1 for which G0·e^−βx yields values smaller than 10^−16 S.
Table 1 summarizes the frequency with which these large current pulses are observed in STM measurements, showing also the effect of increasing bias. Large current events are barely seen below 0.1V, their frequency rising with increasing bias above this threshold. The experiments were repeated without a reference electrode, finding essentially identical results over the range of 0.1 to 0.5V (Table 1) presumably because the large-area substrate used in the STM experiments serves to stabilize surface potential somewhat.
The fraction in parenthesis corresponds to events that overflowed the current limit of the amplifier (11 nA). 0.5V bias approaches the potential for surface oxide formation of the Pd, but no significant oxidation currents were observed.
Functionalizing STM probes and substrates: The STM probes were etched from a 0.25 mm Pd wire (California Fine Wires) by an AC electrochemical etching method, and then insulated with high-density polyethylene, leaving an open apex of a few tens of nanometers in diameter. Before use, the probes were tested in 1 mM phosphate buffer (pH=7.4) at 0.5 V bias to ensure that the leakage current was <1 pA. For functionalization, the probe was gently cleaned using ethanol and water, respectively, and then dried with nitrogen flow. The probe was immersed in a 0.5 mg/mL peptide solution for ˜20 h. After that, the probe was taken out, rinsed with water, dried with nitrogen gas, and used immediately. Palladium substrates were prepared by depositing a 100 nm palladium film onto a 10 nm titanium adhesion layer coated onto a 750 μm thick silicon wafer using an electron-beam evaporator (Lesker PVD 75). The substrate was annealed with a hydrogen flame immediately before being functionalized by the same method as that for probe. Fourier transform infrared (FTIR) spectroscopy was used to characterize the functionalization. Pd substrates were also treated by UV- Ozone cleaner and H2 gas reduction (to remove PdO).
STM Measurements: Break junction measurements were carried out with a PicoSPM scanning probe microscope (Agilent Technologies). The Teflon liquid cells were cleaned in Piranha solution and then sonicated in Milli-Q water three times (Note that: the Piranha is highly corrosive and must be handled with extreme care). The current set point was 4 pA. Different sample bias was applied to the substrate as required. For better surface charge control, an Ag/AgCl with a salt bridge (10 mM KCl) was connected to the substrate. […]

cyclic RGD peptide [2] = assay: Tunnel junction device functionalized with cyclic RGD peptide, gap 3.5 to 4 nm, current vs time; assay type: binding; conditions: for signal on flowing solution over junction: X=0.1 μm junction, 10 pM α4β1 for several minutes, then 10 fM αVβ3
Description: FIG. 7 illustrates a cross-sectional view of a tunnel junction edge (i.e., the edge of an opening) of the device according to some embodiments of the present disclosure which includes a first metal electrode 71 (e.g., palladium, gold and/or platinum) onto which is deposited a layer of an insulating dielectric such as alumina 72 (for example). A second metal electrode 73 is then deposited, typically using one of the metals used for the first electrode. In some embodiments (not shown), the first electrode 71 and the second electrode 73 A cut is then made in the structure to expose the edge of these layers (fabrication of this type of device is described in detail in co-pending, published WO2015/161119, and also in Pang, Ashcroft et al. 2014) to form the opening/nanopore 78, shown here as a plane adjacent to the electrodes 71, 73. Accordingly, the first electrode 71 and the second electrode 73 can have an opening formed therethrough such as, for example, a nanopore. Said another way, the first electrode 71 and the second electrode 73 can be said to be arranged within or adjacent to an opening, or have a nanopore formed therethrough.
Specifically, for example, the insulating layer 72 is deposited with a thickness d that is chosen to be greater than the longest linear dimension of the recognition molecules 74 (L1, referred to as its effective length). However, according to some embodiments, it is chosen to be less than the combined overall length of the largest dimension of a target molecule 75 (L2, also referred to as its effective length) bound to the recognition molecule 74 (L1+L2). In the case of the integrin-RGD pair (FIGS. 3 and 4) the RGD molecule is about 1 nm at its longest, while the integrin is 9 nm, for a total of about 10 nm. […] However, a large particle that fluctuates into a highly conductive state could be used to mediate current flow (Vattay, Salahub et al. 2015). In some embodiments, the gap need only be made substantially larger than twice the largest dimension of the recognition molecules (i.e., >2L1). Thus, for example, if a recognition molecule is 1 nm at its longest dimension, then the gap is configured to be greater than 2 nm, preferably by about 10%, to accommodate variations in the junction geometry (larger than 2.2 nm in this example). In some embodiments, a gap size can be from the noted minimum up to the size of one recognition molecule plus the size of the target protein. For example, if the largest dimension of the protein is 9 nm, then the gap in this case can be as big 9 nm plus the size of one of the recognition molecules (1 nm in this example), thus, a gap of 10 nm.
However, when the junctions are exposed to the target protein (αvβ3 integrin) signals appear immediately. […] A clear signal is immediately generated which includes two (2) features as marked: a background current (of about 0.5 nA in this case) and noise spikes of 0.5 to 1 nA superimposed on top.

[3] = Bias 0.1 V, Reference Ag/AgCl (0V)
[4] = Bias 0.2 V, Reference Ag/AgCl (0V)
[5] = Bias 0.5 V, Reference Ag/AgCl (0V)
[6] = Bias 0.5 V, Reference None (substrate floating)
[7] = many current points, at distances Z0+ΔZ>3 nm

Row | Substance | event frequency, of all retractions (cyclic RGD peptide [1]) | fraction of retractions that showed large current events (cyclic RGD peptide [1]; [3]) | fraction of retractions that showed large current events (cyclic RGD peptide [1]; Bias 0.1 V, Reference None) | fraction of events that overflowed the current limit of the amplifier (11 nA) (cyclic RGD peptide [1]; [4]) | fraction of retractions that showed large current events (cyclic RGD peptide [1]; [4]) | fraction of events that overflowed the current limit of the amplifier (11 nA) (cyclic RGD peptide [1]; Bias 0.2 V, Reference None) | fraction of retractions that showed large current events (cyclic RGD peptide [1]; Bias 0.2 V, Reference None) | fraction of events that overflowed the current limit of the amplifier (11 nA) (cyclic RGD peptide [1]; [5]) | fraction of retractions that showed large current events (cyclic RGD peptide [1]; [5]) | fraction of events that overflowed the current limit of the amplifier (11 nA) (cyclic RGD peptide [1]; [6]) | fraction of retractions that showed large current events (cyclic RGD peptide [1]; [6]) | background current (cyclic RGD peptide [2]; 10 pM and 100 pM solutions) | signal on flowing solution over junction (cyclic RGD peptide [2]) | fraction of events that overflowed the current limit of the amplifier (11 nA) (cyclic RGD peptide [1]; [3]) | fraction of events that overflowed the current limit of the amplifier (11 nA) (cyclic RGD peptide [1]; Bias 0.1 V, Reference None) | conductance (cyclic RGD peptide [1]; [7]) | peak current (cyclic RGD peptide [1]; [7]) | background current (cyclic RGD peptide [2]; 1 pM in 1 mM phosphate buffer pH 7.0) | change of background current (cyclic RGD peptide [2]; on increasing concentration to 10 pM)
1 | α4β1: homologous, weakly-binding integrin protein used as a control | 12% | 0.01 | 0 | 0 | 0.15 | 0 | 0.12 | 0.01 | 0.3 | 0 | 0.24 | no background current | no signal being produced | – | – | – | – | – | –
2 | αvβ3: ~200 kD αVβ3 extracelluar domain of human integrin, target protein bound by cyclic RGD peptide | 25% | 0.07 | 0.06 | 0.01 | 0.32 | 0.03 | 0.26 | 0.2 | 0.58 | 0.09 | 0.56 | – | a large signal appeared after a few minutes | 0 | 0 | > 0.5 nS | exceed 0.1 nA | about 0.5 nA | increases by nearly an order of magnitude
